Values after ≈ are worked out from the molar mass of the structure shown. Where two headings read alike, the source gives them in different places.
Legend:
S. aureus 29213 = assay: Antibacterial susceptibility test (MIC, microbroth dilution); assay type: cell-based; details: 18 hours at 37° C., >90% inhibition of bacterial growth
From the text: (§1) The bacterial strains used in microbial susceptibility test were E. coli, S. aureus 29213 and B. subtilis 168. E. coli and S. aureus 29213 were obtained from the laboratory of the Hong Kong Polytechnic University. B. subtilis 168 was purchased from American Type Culture Collection (USA). The mammalian cell lines L929 (mouse peritoneal fibroblast), LCC6 (a wild type breast cancer cell line), LCC6MDR (P-gp over-expressed breast cancer cell line) were stocks in our department. Nutrient Agar, tryptone and yeast extract were purchased from Oxoid Limited (Nepean, Ontario, Canada). Luria-Bertani (LB) medium was prepared from 2 g tryptone, 1 g yeast extract, and 2 g sodium chloride in 200 ml deionized water and sterilized. Müller-Hinton broth (MHB), cation-adjusted Müller-Hinton broth (MHB) and trypticase soy broth (TSB) for microbial susceptibility test were purchased from Becton, Dickinson and Company (New Jersey, USA). A microplate reader (Bio-Rad Laboratories Model 680) is used to measure bacterial growth and cytotoxicity. An Olympus FSX100® Bio Imaging Navigator Microscope was used to observe the morphology of B. subtilis cell.
(§2) The minimum inhibitory concentration (MIC) of each compound was determined using microbroth dilution method according to the National Committee for Clinical Laboratory Standards (CLSI) guidelines. All Compounds were dissolved in DMSO and diluted in a serial two-fold manner. A single colony of bacterial strain on a TSB agar plate was inoculated in 5 mL MHB or CA-MHB. The bacterial cells were incubated at 37° C. until the optimal density (OD600) of the growing cells reached 1.0. The cells were then diluted to a final concentration of approximately 5×10^5 CFU/mL in a serial two-fold manner in a 96-well microtiter plate (Iwaki, Japan). Compound 3 and PC190723 were used as positive controls. […] Table 1 below summarizes the MIC of all synthesized compounds.

B. subtilis 168 = assay: as above; assay type: cell-based; details: 18 hours at 37° C., >90% inhibition of bacterial growth, read-out: MIC, BS 168
From the text: as §1, §2

E. coli = assay: as above; assay type: cell-based; details: 18 hours at 37° C., >90% inhibition of bacterial growth
From the text: as §1, §2

MRSA strain USA300#757 = assay: Fractional Inhibitory Concentration Index (FICI) determination; assay type: cell-based, S. aureus
Description: The bacterial strains used in this study were clinically isolated MRSA strains USA300#757 and #2960 which were obtained from our laboratory. Determination of the Fractional Inhibitory Concentration Index (FICI) was adopted by the Müller-Hinton broth (MHB) dilution method as previously described. Twelve serial two-fold dilutions of PC190723, F332 and F361 were prepared in the 96-well microplate with concentration ranging from 512 to 0.25 μg/mL. […] Lastly, the compounds and the β-lactams were mixed at a 1:1 ratio and subjected to two-fold dilution as described previously. Each microplate well contained 100 μL of MHB supplemented with compounds alone, β-lactams alone or the mixture of compounds and β-lactams. Overnight cultures of S. aureus in the Müller-Hinton broth was diluted to OD595 of 0.08-0.1 in saline and added in each of the microplate well. The plates were incubated at 37° C. for 20 h. All tests were performed in duplicate and the inhibition of bacterial growth was determined by visualization. The FICI of compounds and β-lactams were calculated as followed: FICI=(MIC of combination of compound and β-lactam/MIC of compound alone)+(MIC of combination of compound and β-lactam/MIC of β-lactam alone).

MRSA strain USA300#2960 = assay: as above; assay type: cell-based, S. aureus
Description: The bacterial strains used in this study were clinically isolated MRSA strains USA300#757 and #2960 which were obtained from our laboratory. Determination of the Fractional Inhibitory Concentration Index (FICI) was adopted by the Müller-Hinton broth (MHB) dilution method as previously described. Twelve serial two-fold dilutions of PC190723, F332 and F361 were prepared in the 96-well microplate with concentration ranging from 512 to 0.25 μg/mL. A series of two-fold dilutions of ampicillin, cloxacillin and cefuroxime were also prepared following the same procedure. Lastly, the compounds and the β-lactams were mixed at a 1:1 ratio and subjected to two-fold dilution as described previously. Each microplate well contained 100 μL of MHB supplemented with compounds alone, β-lactams alone or the mixture of compounds and β-lactams. Overnight cultures of S. aureus in the Müller-Hinton broth was diluted to OD595 of 0.08-0.1 in saline and added in each of the microplate well. The plates were incubated at 37° C. for 20 h. All tests were performed in duplicate and the inhibition of bacterial growth was determined by visualization. The FICI of compounds and β-lactams were calculated as followed: FICI=(MIC of combination of compound and β-lactam/MIC of compound alone)+(MIC of combination of compound and β-lactam/MIC of β-lactam alone).

Compound	MIC (S. aureus 29213; Staphylococcus aureus, 29213) [µM]	MIC (B. subtilis 168; Bacillus subtilis, 168) [µM]	MIC (E. coli; Escherichia coli) [µM]	MIC (S. aureus 29213) [µM]	MIC (B. subtilis 168) [µM]	MIC (E. coli) [µM]	other results
CCCCCCCCNc1ccc(F)c(C(N)=O)c1F [Compound F333, 2,6-difluoro-3-(octylamino)benzamide]	50 (≈ 14.2 µg/mL)	6.25 (≈ 1.78 µg/mL)	> 100	–	–	–	–
CCCCCCCCCCNc1ccc(F)c(C(N)=O)c1F [Compound F334, 3-(decylamino)-2,6-difluorobenzamide]	> 100	> 100	> 100	–	–	–	–
CCCCCCCCCNc1ccc(F)c(C(N)=O)c1 [Compound F342, 2-fluoro-5-(nonylamino)benzamide]	> 100	25 (≈ 7.01 µg/mL)	> 100	–	–	–	–
CCCCCCCCCNc1cc(C(N)=O)c(F)cc1F [Compound F345, 2,4-difluoro-5-(nonylamino)benzamide]	> 100	100 (≈ 29.8 µg/mL)	> 100	–	–	–	–
CCCCOCCCCNc1ccc(F)c(C(N)=O)c1F [Compound F350, 3-((4′-butoxy)butylamino)-2,6-difluorobenzamide]	> 100	> 100	> 100	–	–	–	–
NC(=O)c1c(F)ccc(N2CCCC2)c1F [Compound F357, 2,6-difluoro-3-(pyrrolidin-1-yl)benzamide]	> 100	> 100	> 100	–	–	–	–
NC(=O)c1c(F)ccc(N2CCCCC2)c1F [Compound F358, 2,6-difluoro-3-(piperidin-1-yl)benzamide]	> 100	> 100	> 100	–	–	–	–
NC(=O)c1c(F)ccc(NCc2ccc(F)c(F)c2)c1F [Compound F362, 3-((3′,4′-difluorobenzyl)amino)-2,6-difluorobenzamide]	–	–	–	>100	>100	>100	–
NC(=O)c1c(F)ccc(N(Cc2ccc(F)c(F)c2)Cc2ccc(F)c(F)c2)c1F [Compound F363, 3-(bis(3′,4′-difluorobenzyl)amino)-2,6-difluorobenzamide]	–	–	–	50 (≈ 21.2 µg/mL)	>100	>100	–
NC(=O)c1c(F)ccc(NCc2ccc(F)cc2F)c1F [Compound F364, 3-((2′,4′-difluorobenzyl)amino)-2,6-difluorobenzamide]	–	–	–	>100	>100	>100	–
NC(=O)c1c(F)ccc(N(Cc2ccc(F)cc2F)Cc2ccc(F)cc2F)c1F [Compound F365, 3-(bis(2′,4′-difluorobenzyl)amino)-2,6-difluorobenzamide]	–	–	–	>100	<50	>100	–
NC(=O)c1c(F)ccc(NCc2c(F)cccc2F)c1F [Compound F366, 3-((2′,6′-difluorobenzyl)amino)-2,6-difluorobenzamide]	–	–	–	>100	>100	>100	–
NC(=O)c1c(F)ccc(N(Cc2c(F)cccc2F)Cc2c(F)cccc2F)c1F [Compound F367, 3-(bis(2′,6′-difluorobenzyl)amino)-2,6-difluorobenzamide]	–	–	–	>100	>100	>100	–
CCCCCCCCC(=O)Nc1ccc(F)c(C(N)=O)c1F [Compound F368, 2,6-difluoro-3-nonanamidobenzamide]	> 100	> 100	> 100	–	–	–	–
CC(C)=CCC/C(C)=C/CNc1ccc(F)c(C(N)=O)c1F [Compound F369, (E)-3-((3,7-dimethyl-2,6-octadien-1-yl)amino)-2,6-difluorobenzamide]	> 100	50 (≈ 15.4 µg/mL)	> 100	–	–	–	–
CCCCOc1cccc(CNc2ccc(F)c(C(N)=O)c2F)c1 [Compound F373, 3-((3′-butoxybenzyl)amino)-2,6-difluorobenzamide]	–	–	–	50 (≈ 16.7 µg/mL)	25 (≈ 8.36 µg/mL)	>100	–
CCC(C)Oc1cccc(CNc2ccc(F)c(C(N)=O)c2F)c1 (stereo not shown) [Compound F377, 3-((3′-(sec-butoxy)benzyl)amino)-2,6-difluorobenzamide]	–	–	–	>100	>100	>100	–

Now from value to molecule, other results behind:

MIC (S. aureus 29213; Staphylococcus aureus, 29213) [µM]	MIC (B. subtilis 168; Bacillus subtilis, 168) [µM]	MIC (E. coli; Escherichia coli) [µM]	MIC (S. aureus 29213) [µM]	MIC (B. subtilis 168) [µM]	MIC (E. coli) [µM]	Compound	other results
25 (≈ 7.41 µg/mL)	6.25 (≈ 1.85 µg/mL)	> 100	–	–	–	CCCCCC/C=C\CNc1ccc(F)c(C(N)=O)c1F [Compound F370, (Z)-2,6-difluoro-3-(2-nonenylamino)benzamide]	–
> 100	6.25 (≈ 2.36 µg/mL)	> 100	–	–	–	CCCCCCCCCNc1c(Br)cc(F)c(C(N)=O)c1F [Compound F371, 4-bromo-2,6-difluoro-3-(nonylamino)benzamide]	–
–	–	–	50 (≈ 17.4 µg/mL)	12.5 (≈ 4.35 µg/mL)	>100	CCCCCOc1cccc(CNc2ccc(F)c(C(N)=O)c2F)c1 [Compound F376, 2,6-difluoro-3-((3′-(pentyloxy)benzyl)amino)benzamide]	–
–	–	–	>100	>100	>100	NC(=O)c1c(F)ccc(NCc2cccc(OCc3ccc(C(F)(F)F)cc3)c2)c1F [Compound F378, 2,6-difluoro-3-((3′-((4″-(trifluoromethyl)benzyl)oxy)benzyl)amino)benzamide]	–
50 (≈ 13.5 µg/mL)	50 (≈ 13.5 µg/mL)	> 100	–	–	–	CCCCCCCNc1ccc(F)c(C(N)=O)c1F [Compound F391, 2,6-difluoro-3-(heptylamino)benzamide]	–
12.5 (≈ 3.73 µg/mL)	25 (≈ 7.46 µg/mL)	> 100	–	–	–	CCCCCCCCN(C)c1ccc(F)c(C(N)=O)c1F [Compound F409, 2,6-difluoro-3-(methyl(octyl)amino)benzamide]	–
50 (≈ 15.6 µg/mL)	25 (≈ 7.81 µg/mL)	> 100	–	–	–	CCCCCCCCN(CC)c1ccc(F)c(C(N)=O)c1F [Compound F410, 3-(ethyl(octyl)amino)-2,6-difluorobenzamide]	–
> 100	6.25 (≈ 1.64 µg/mL)	> 100	–	–	–	CCCCCCCCCNc1cccc(C(N)=O)c1 [Compound F411, 3-(nonylamino)benzamide]	–
> 100	25 (≈ 6.21 µg/mL)	> 100	–	–	–	CCCCCCCCNc1cccc(C(N)=O)c1 [Compound F412, 3-(octylamino)benzamide]	–
> 100	> 100	> 100	–	–	–	CCCCCCCCCN(C)c1cccc(C(N)=O)c1 [Compound F413, 3-(methyl(nonyl)amino)benzamide]	–
> 100	> 100	> 100	–	–	–	CCCCCCCCN(C)c1cccc(C(N)=O)c1 [Compound F414, 3-(methyl(octyl)amino)benzamide]	–
–	–	–	0.5 (≈ 0.178 µg/mL)	0.5 (≈ 0.178 µg/mL)	>2	NC(=O)c1c(F)ccc(OCc2nc3cc(Cl)cnc3s2)c1F [PC190723, reference compound]	FICI with Cefotaxime (MRSA strain USA300#757): 1.02; FICI with Meropenem (MRSA strain USA300#757): 0.31; FICI with Cefotaxime (MRSA strain USA300#2960): 1.03; FICI with Meropenem (MRSA strain USA300#2960): 0.63

Source: patent publication US20170348258A1, “3-Amino Benzamide Derivative Serving As B-Lactam Auxiliary Antibiotic, Preparation Method and Use Thereof” (THE HONG KONG POLYTECHNIC UNIVERSITY, priority 2014, published 2017)
